Measured values taken from patent publication US11814367B2, “Inhibitors of glycogen synthase 1 (GYS1) and methods of use thereof” (Maze Therapeutics, Inc., priority 2021, dated 2023).

Tests used:
[1] = biological target: hGYS1 enzyme (recombinant hGYS1/GN1 protein) (Homo sapiens (Human), UniProt P13807); assay: GYS1 coupled enzyme assay (PK/LDH); assay type: biochemical; settings: hGYS1/GN1 50 nM, UDP-Glucose 0.8 mM, G6P 1 mM; geometric mean of at least 2 runs
[2] = biological target: hGYS2 enzyme (recombinant hGYS2/GN1 protein) (Homo sapiens (Human), UniProt P54840); assay: GYS2 coupled enzyme assay (PK/LDH); assay type: biochemical; settings: geometric mean of at least 2 assay runs on separate days, read-out: Avg_IC50
How it was run: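 Recombinant hGYS2/GN1 (200 nM) with 2 mM UDP-glucose, 0.2% rabbit liver glycogen, 2 mM glucose-6-phosphate; UDP coupled via PK/LDH (2 mM PEP, 0.6 mM NADH). Buffer 50 mM Tris pH 7.5, 2 mM MgCl2, 100 mM KCl, 2.5% DMSO. A340 slope over 10 min; IC50 from Hill fit of duplicates.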

hGYS2 enzyme (recombinant hGYS2/GN1 protein), sequence (P54840 whole entry): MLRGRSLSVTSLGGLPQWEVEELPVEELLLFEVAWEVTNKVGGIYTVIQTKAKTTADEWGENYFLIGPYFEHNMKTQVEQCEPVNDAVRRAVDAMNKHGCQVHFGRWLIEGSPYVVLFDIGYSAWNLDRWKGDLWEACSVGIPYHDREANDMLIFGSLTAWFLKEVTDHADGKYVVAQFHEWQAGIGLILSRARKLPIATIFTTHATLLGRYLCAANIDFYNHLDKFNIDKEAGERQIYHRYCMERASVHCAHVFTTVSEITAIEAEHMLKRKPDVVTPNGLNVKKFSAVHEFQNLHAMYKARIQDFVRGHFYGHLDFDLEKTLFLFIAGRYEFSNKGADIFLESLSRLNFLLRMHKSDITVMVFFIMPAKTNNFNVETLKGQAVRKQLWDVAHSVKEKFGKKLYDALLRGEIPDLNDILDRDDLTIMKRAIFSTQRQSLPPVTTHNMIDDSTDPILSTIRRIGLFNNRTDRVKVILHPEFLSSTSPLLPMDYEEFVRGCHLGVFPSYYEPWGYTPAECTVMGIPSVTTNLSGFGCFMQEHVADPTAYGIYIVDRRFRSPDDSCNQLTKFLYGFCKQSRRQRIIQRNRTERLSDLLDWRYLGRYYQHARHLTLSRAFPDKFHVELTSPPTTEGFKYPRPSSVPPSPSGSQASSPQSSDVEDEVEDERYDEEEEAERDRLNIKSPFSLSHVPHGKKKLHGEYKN
hGYS2 enzyme (recombinant hGYS2/GN1 protein), sequence (P46976 whole entry partner): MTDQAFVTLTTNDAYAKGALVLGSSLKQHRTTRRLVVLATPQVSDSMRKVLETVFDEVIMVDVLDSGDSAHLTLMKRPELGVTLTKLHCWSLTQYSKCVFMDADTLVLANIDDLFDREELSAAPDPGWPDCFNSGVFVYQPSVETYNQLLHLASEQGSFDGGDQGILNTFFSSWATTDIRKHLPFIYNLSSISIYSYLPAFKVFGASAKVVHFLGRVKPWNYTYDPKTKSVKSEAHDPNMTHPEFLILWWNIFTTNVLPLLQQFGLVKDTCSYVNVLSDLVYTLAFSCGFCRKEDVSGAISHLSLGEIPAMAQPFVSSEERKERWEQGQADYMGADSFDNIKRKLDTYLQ
hGYS1 enzyme (recombinant hGYS1/GN1 protein), sequence (P13807 whole entry): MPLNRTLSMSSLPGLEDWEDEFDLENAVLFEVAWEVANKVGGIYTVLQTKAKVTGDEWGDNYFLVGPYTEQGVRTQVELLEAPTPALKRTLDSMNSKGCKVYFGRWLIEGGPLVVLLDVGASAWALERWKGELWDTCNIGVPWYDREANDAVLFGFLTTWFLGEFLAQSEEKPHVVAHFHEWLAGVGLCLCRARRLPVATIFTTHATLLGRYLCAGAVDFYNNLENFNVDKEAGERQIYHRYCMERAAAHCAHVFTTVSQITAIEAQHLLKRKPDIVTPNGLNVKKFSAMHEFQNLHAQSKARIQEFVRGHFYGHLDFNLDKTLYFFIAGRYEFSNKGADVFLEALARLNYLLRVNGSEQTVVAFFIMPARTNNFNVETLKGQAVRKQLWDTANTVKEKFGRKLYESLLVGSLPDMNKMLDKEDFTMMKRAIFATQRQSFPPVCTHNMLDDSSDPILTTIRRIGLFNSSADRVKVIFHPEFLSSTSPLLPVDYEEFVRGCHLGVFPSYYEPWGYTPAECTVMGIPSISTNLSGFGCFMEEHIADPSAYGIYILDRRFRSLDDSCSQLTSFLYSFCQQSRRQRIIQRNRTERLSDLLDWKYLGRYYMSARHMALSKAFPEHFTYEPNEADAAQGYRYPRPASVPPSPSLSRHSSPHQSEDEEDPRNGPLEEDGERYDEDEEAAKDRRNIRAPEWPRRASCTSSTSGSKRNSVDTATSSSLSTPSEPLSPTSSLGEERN
hGYS1 enzyme (recombinant hGYS1/GN1 protein), sequence (P46976 whole entry partner): as the sequence (P46976 whole entry partner) above

Compound | IC50 [1] [nM] | IC50 [2] [nM]
CC(C)c1ccc([C@@H](NC(=O)[C@@H]2C[C@@H](F)CN2C(=O)Cc2cnc3ccccn23)c2ccccc2)cc1 [Compound 121] | 15 | > 100000
Cc1cn(CC(=O)N2C[C@H](F)C[C@H]2C(=O)N[C@@H](c2ccccc2)c2ccc(C(C)C)c(F)n2)c(=O)[nH]c1=O [Compound 388, (2S,4R)-4-fluoro-N-[(S)-[6-fluoro-5-(propan-2-yl)pyridin-2-yl](phenyl)methyl]-1-[2-(5-methyl-2,4-dioxo-1,2,3,4-tetrahydropyrimidin-1-yl)acetyl]pyrrolidine-2-carboxamide] | 5 | > 100000
CC(=O)NCCCC(=O)N1C[C@H](F)C[C@H]1C(=O)N[C@@H](c1ccccc1)c1ccc(C(C)C)cc1 [Compound 191, (2S,4R)-1-(4-acetamidobutanoyl)-4-fluoro-N-[(S)-phenyl[4-(propan-2-yl)phenyl]methyl]pyrrolidine-2-carboxamide] | 131 | > 100000
(2S,4R)-N-[(S)-(4- cyclopropyl-3- fluorophenyl)(phenyl) methyl]-4-fluoro-1- [2-(1H-1,2,3-triazol-5- yl)acetyl]pyrrolidine- 2-carboxamide [Compound 439] | 185 | > 100000
Cc1ncc(CC(=O)N2C[C@H](F)C[C@H]2C(=O)N[C@@H](c2ccccc2)c2ccc(C(C)C)cc2)s1 [Compound 41, (2S,4R)-4-fluoro-1-[2-(2-methyl-1,3-thiazol-5-yl)acetyl]-N-[(S)-phenyl[4-(propan-2-yl)phenyl]methyl]pyrrolidine-2-carboxamide] | 31 | > 100000
O=C(N[C@@H](c1ccccc1)c1ccc(C2CC2)c(F)c1)[C@@H]1C[C@@H](F)CN1C(=O)Cc1ccn[nH]1 [Compound 436, (2S,4R)-N-[(S)-(4-cyclopropyl-3-fluorophenyl)(phenyl)methyl]-4-fluoro-1-[2-(1H-pyrazol-5-yl)acetyl]pyrrolidine-2-carboxamide] | 173 | > 100000

Continued, values first:

IC50 [1] [nM] | IC50 [2] [nM] | Compound
26 | > 100000 | Cc1cc(CC(=O)N2C[C@H](F)C[C@H]2C(=O)N[C@@H](c2ccccc2)c2ccc(C(C)C)cc2)on1 [Compound 40, (2S,4R)-4-fluoro-1-[2-(3-methyl-1,2-oxazol-5-yl)acetyl]-N-[(S)-phenyl[4-(propan-2-yl)phenyl]methyl]pyrrolidine-2-carboxamide]
45 | > 100000 | CC(C)c1ccc([C@@H](NC(=O)[C@@H]2C[C@@H](F)CN2C(=O)Cc2ccccn2)c2ccccc2)cc1 [Compound 37, (2S,4R)-4-fluoro-N-[(S)-phenyl[4-(propan-2-yl)phenyl]methyl]-1-[2-(pyridin-2-yl)acetyl]pyrrolidine-2-carboxamide]
23 | > 100000 | Cc1cc(C)n(CC(=O)N2C[C@H](F)C[C@H]2C(=O)N[C@@H](c2ccccc2)c2ccc(C(C)C)cc2)n1 [Compound 125, (2S,4R)-1-[2-(3,5-dimethyl-1H-pyrazol-1-yl)acetyl]-4-fluoro-N-[(S)-phenyl[4-(propan-2-yl)phenyl]methyl]pyrrolidine-2-carboxamide]
51 | > 100000 | CN(C)C(=O)NCC(=O)N1C[C@H](F)C[C@H]1C(=O)N[C@@H](c1ccccc1)c1ccc(C2CC2)c(F)c1 [Compound 441, (2S,4R)-N-[(S)-(4-cyclopropyl-3-fluorophenyl)(phenyl)methyl]-1-{2-[(dimethylcarbamoyl)amino]acetyl}-4-fluoropyrrolidine-2-carboxamide]
162 | > 100000 | Cc1noc(C)c1CCC(=O)N1C[C@H](F)C[C@H]1C(=O)N[C@@H](c1ccccc1)c1ccc(C(C)C)cc1 [Compound 103, (2S,4R)-1-[3-(3,5-dimethyl-1,2-oxazol-4-yl)propanoyl]-4-fluoro-N-[(S)-phenyl[4-(propan-2-yl)phenyl]methyl]pyrrolidine-2-carboxamide]
